From publication PMC5399635 (The Journal of Pharmacology and Experimental Therapeutics, 2017)
Values joined by “and” are separate entries in the source; they are usually repeats but may differ in a detail not shown here. Equal values may be shown once. Read-outs that look alike come from different tables or passages of the source.

Tests used:
[1] = molecular target: T1, rat κ-opioid receptor (Rattus norvegicus, UniProt P34975); experiment: Radioligand binding, κ-opioid receptor ([3H]U69593)
T1 construct: expressed in transfected cells; host or cells: CHO cells
T1 sequence (P34975 whole entry): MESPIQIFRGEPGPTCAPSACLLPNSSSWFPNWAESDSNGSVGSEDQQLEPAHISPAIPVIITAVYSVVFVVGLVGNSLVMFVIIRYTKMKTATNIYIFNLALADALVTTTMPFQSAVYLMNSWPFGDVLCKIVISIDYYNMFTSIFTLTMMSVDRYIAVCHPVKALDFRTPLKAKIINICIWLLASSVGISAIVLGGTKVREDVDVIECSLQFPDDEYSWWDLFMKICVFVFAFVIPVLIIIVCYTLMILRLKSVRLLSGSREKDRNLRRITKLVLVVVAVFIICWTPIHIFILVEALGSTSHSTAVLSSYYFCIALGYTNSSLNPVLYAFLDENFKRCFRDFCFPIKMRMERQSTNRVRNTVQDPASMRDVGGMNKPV
Procedure: Competitive inhibition studies were performed on cloned opioid receptors expressed in membranes of Chinese hamster ovary (CHO) cells and conducted in triplicate (n = 3 independent experiments).
Radioligand binding assays were performed to evaluate the ability of these agents to inhibit specific radioligand binding to cloned opioid receptor subtypes. Half-maximal inhibitory concentration (IC50), equilibrium dissociation constant for the inhibitor (Ki), and negative log of the equilibrium dissociation constant for the inhibitor (pKi) values were obtained. The receptor binding methods used for µ ([Zhang et al., 1998])-, δ ([Simonin et al., 1994])-, and κ ([Meng et al., 1993])-opioid receptors have been described previously, with the exception that 100 mM NaCl was added to the incubation buffer in the µ-opioid receptor binding assay. All assays were conducted in 200-µl volume. All assay incubations were terminated by filtration, and bound radioligand was quantitated by liquid scintillation spectrometry. The IC50 values were determined by nonlinear regression analysis of the competition curves generated with the mean of duplicate values using Hill equation curve fitting. The inhibition constants (Ki) were calculated using the Cheng-Prusoff equation. The pKi results from three independent experiments were analyzed for significant differences by one-way analysis of variance (ANOVA) followed by Bonferroni multiple comparison test.

[2] = system: panel of more than 300 receptors, ion channels, transporters, and enzymes; experiment: Binding screen across a panel of more than 300 targets; conditions: 10 µM; apart from opioid receptors; data not shown
[3] = molecular target: T2, human δ-opioid receptor (Homo sapiens, UniProt P41143); experiment: [35S]GTPγS functional assay, δ-opioid receptor (CHO membranes); type: biochemical; conditions: agonist mode, relative to DPDPE 10 µM; single experiment
T2 construct: expressed in transfected cells; host or cells: CHO cells
T2 sequence (P41143 whole entry): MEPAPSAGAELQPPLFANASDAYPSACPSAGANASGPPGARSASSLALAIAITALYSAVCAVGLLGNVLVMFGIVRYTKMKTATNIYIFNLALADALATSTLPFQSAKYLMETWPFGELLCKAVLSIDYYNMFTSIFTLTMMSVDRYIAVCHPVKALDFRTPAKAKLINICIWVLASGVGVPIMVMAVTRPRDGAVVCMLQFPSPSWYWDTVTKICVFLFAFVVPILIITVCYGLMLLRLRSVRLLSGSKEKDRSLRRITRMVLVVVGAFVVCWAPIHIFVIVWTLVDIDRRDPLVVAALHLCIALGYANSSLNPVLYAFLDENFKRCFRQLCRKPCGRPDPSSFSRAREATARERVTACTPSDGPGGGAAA

[4] = molecular target: T3, human κ-opioid receptor (Homo sapiens, UniProt P41145); experiment: [35S]GTPγS functional assay, κ-opioid receptor (HEK-293 membranes); type: biochemical
T3 construct: expressed in transfected cells; host or cells: HEK-293 cells
T3 sequence (P41145 whole entry): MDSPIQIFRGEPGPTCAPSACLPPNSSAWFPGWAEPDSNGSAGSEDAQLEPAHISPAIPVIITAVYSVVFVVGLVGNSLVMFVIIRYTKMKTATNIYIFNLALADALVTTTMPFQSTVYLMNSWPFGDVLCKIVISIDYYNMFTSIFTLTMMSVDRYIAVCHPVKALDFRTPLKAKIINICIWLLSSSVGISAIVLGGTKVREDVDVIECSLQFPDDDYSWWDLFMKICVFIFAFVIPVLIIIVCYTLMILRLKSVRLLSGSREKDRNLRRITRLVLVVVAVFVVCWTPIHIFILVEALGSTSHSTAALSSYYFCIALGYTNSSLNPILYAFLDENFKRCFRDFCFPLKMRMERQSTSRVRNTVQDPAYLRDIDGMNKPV
Procedure: (§1) These were single experiments conducted across a range of 12 half-log concentrations, from […], with 1 replicate per concentration; experimental conditions were as described for [^35S]GTPγS binding experiments with human recombinant µ-opioid receptors. Functional activity at κ-opioid receptors was also determined in an isolated tissue preparation from the rabbit vas deferens, using methods detailed previously ([Oka et al., 1981]).

[5] = molecular target: T4, κ-opioid receptors (Oryctolagus cuniculus, UniProt G1SJ19); experiment: Isolated field-stimulated rabbit vas deferens assay; conditions: concentrations up to 10 µM
T4 construct: isolated tissue preparation from the rabbit vas deferens; from tissue; host or cells: rabbit vas deferens
T4 sequence (G1SJ19 1-383): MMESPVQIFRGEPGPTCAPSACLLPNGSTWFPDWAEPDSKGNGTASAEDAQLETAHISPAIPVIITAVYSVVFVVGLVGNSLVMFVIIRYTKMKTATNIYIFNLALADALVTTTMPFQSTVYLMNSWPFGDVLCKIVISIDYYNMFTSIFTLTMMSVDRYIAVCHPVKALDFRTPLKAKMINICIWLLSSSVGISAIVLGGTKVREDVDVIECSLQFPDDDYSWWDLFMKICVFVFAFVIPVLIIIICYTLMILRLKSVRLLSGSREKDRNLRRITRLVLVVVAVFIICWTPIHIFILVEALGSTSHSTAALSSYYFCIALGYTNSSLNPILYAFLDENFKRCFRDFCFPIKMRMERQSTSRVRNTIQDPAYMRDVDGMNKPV
Procedure: as §1

[6] = system: opioid-induced constipation; design: method as in Chey et al., 2014; conditions: two trials, ref Chey et al., 2014, cited from earlier work
[7] = system: peripheral and central effects of morphine; design: method as in Eldon et al., 2015; conditions: healthy male volunteers administered morphine; ref Eldon et al., 2015; cited from earlier work
[8] = design: method as in Bui et al., 2016; conditions: quinidine; ref Bui et al., 2016; cited from earlier work
[9] = In situ rat brain perfusion model; conditions: 30 s perfusion, test compound 20 μM, atenolol 50 μM, antipyrine 5 μM, mean ± S.D.
[10] = system: morphine-induced inhibition of gastrointestinal transit; experiment: Gastrointestinal transit model (charcoal meal), antagonism of morphine
[11] = molecular target: human µ-opioid receptor (Homo sapiens, UniProt P35372); experiment: [35S]GTPγS binding, Schild-type antagonism of morphine (CHO-K1 membranes); conditions: versus morphine; pooled 3 experiments
Chain of human µ-opioid receptor (P35372 whole entry): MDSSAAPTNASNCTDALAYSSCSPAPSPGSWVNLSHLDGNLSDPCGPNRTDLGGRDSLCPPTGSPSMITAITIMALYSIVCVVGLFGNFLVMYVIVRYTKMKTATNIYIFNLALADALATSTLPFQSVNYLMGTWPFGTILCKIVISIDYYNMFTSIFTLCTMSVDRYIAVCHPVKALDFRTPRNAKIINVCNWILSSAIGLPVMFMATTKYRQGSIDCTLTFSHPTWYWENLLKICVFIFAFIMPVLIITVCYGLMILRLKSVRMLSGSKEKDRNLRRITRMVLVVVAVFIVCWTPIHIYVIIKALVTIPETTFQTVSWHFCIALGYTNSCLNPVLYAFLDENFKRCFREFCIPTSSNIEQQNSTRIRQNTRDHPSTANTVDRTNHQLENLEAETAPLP

C=CCN1CC[C@]23c4c5ccc(O)c4O[C@H]2[C@@H](OCCOCCOCCOCCOCCOCCOCCOC)CC[C@@]3(O)[C@H]1C5 [Naloxegol, naloxegol]
Ki ([1]; cloned rat κ-opioid receptors, read-out: geometric mean Ki): 8.65 nM and 8.6 nM | Ki ([1]; no measure named, read-out: κ-opioid receptor value expressed as plasma concentration (Fig. 5) (converted)): 8.59 nM | inhibition of binding across panel [2]: ≤ 30% | agonism [3]: no agonism | IC50 ([4]; U69593 100 nM, read-out: IC50 (inhibition of response to U69593)): 37 nM | inhibition at 100 µM ([4]; at 100 µM, read-out: maximal inhibition of response to U69593): 62% | EC50 ([4]; read-out: EC50 (agonism)): 47 nM | Emax ([4]; read-out: maximal effect, agonism relative to U69593): 39% | agonist activity at κ-opioid receptors [5]: no agonist activity | 12-week response rate versus placebo ([6]; 12.5 mg once daily): significantly higher than with placebo in only one trial | 12-week response rate versus placebo ([6]; 25 mg once daily): Significantly more patients responded | effect on morphine-induced miosis [7]: no change in morphine-induced miosis | effect on orocecal transit time [7]: reduced orocecal transit time | CNS distribution when coadministered with a strong P-gp inhibitor [8]: unaffected | Brain Uptake [9]: 4.1 ± 1.4 pmol/g brain/s | oral dose that completely reversed the effect of morphine ([10]; GI transit assay, rat): 90 mg/kg | ED50 ([10]; Rattus norvegicus, read-out: ED50, antagonism of morphine in GI transit): 23.1 mg/kg | times less potent than naloxone ([10]; comparison of ED50 values): approximately 33 fold | separation in PNS versus CNS effect ([10]; rat, GI transit versus hot plate): twofold | Schild slope [11]: –1.03
